Literature values as cited in patent publication US6569898B2, “Use of (Z) -2-cyano-3-hydroxy-but-2-enoic acid-(4′-trifluoromethylphenyl)-amide for treating multiple sclerosis” (Aventis Pharmaceuticals Inc., priority 2001, dated 2003).

Legend:
[1] = test system: immune cells and cell lines
[2] = molecular target: dihydrooate dehydrogenase (Homo sapiens, UniProt Q02127); settings: enzyme essential for the synthesis of pyrimidines
dihydrooate dehydrogenase, sequence (Q02127 whole entry): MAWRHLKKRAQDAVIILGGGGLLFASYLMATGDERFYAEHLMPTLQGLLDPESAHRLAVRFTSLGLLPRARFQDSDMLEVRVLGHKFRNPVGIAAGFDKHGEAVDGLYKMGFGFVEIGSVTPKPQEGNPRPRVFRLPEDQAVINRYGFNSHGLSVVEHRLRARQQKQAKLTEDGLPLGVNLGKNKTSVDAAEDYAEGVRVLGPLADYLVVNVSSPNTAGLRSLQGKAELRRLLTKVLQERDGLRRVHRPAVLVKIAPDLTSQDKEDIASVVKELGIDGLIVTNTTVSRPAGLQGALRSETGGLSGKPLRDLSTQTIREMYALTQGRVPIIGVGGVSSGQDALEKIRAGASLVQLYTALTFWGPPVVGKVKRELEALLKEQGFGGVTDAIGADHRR

inhibition of the enzyme dihydrooate dehydrogenase [2]: inhibits
SMILES: C/C(O)=C(\C#N)C(=O)Nc1ccc(C(F)(F)F)cc1 [Teriflunomide, (Z)-2-cyano-3-hydroxy-but-2-enoic acid-(4′-trifluoromethylphenyl)-amide]
antiproliferative effects on a wide variety of immune cells and cell lines [1]: antiproliferative effects
